Experiments:
[1] = tested on: Mupirocin Resistant S. aureus (28 Passages); assay: Chequerboard analysis of HT00800059 and mupirocin against mupirocin resistant S. aureus (28 passages); type: cell-based, Staphylococcus aureus; conditions: for optical density reading at 405 nm: HT00800059 μg/ml: 1024,512,256,128,64,32,16,0, 24 hours
Experimental: (§1) Staphylococcus aureus (Oxford); Gram positive; Reference strain.
(§2) Log phase growth of mupirocin resistant Staphylococcus aureus (MSSA) was carried out as follows: • Bacteria were grown in 10 ml of nutrient broth (No. 2, (Oxoid)) overnight at 37° C. with continuous shaking at 120 rpm. The overnight cultures were diluted 1000× with iso-sensitest broth. The cultures were incubated at 37° C. with shaking for 1-2 hours to reach log CFU 6. Viability of the bacteria was estimated by colony forming unit (CFU) counts. From serial 10-fold dilutions of the experimental cultures, 100 μl samples were added to triplicate plates of nutrient agar plates (Oxoid) or blood agar plates (Oxoid). CFUs were counted after incubation of the plates at 37° C. for 24 hours.
(§3) Bacterial cultures: 10 μl of overnight cultures was added to 10 ml of fresh iso-sensitest broth to make the inoculation to 10^6 CFU/ml. 290 μl of the cell suspension was added to each well of the 96 well plate, which was incubated at 37° C. for 24 hours. 300 μl of iso-sensitest broth without bacterial cells were added to wells of the plate as a no bacterial control.
(§4) MIC determination: The optical density of the bacterial cells was read at 405 nm using a plate reader (Bio TEK). The MIC concentration was determined as the lowest concentration of drug which inhibits the bacterial growth.
(§5) Mupirocin was dissolved in DMSO to the stock concentration of 10 mg/ml. HT00800059 was dissolved in H2O to the stock solution 30.07 mg/ml.
(§6) Mupirocin (10 mg/ml) was firstly diluted to 3.84 mg/ml, then further diluted in a serial of 2 fold dilutions. HT00800059 (30.7 mg/ml) was performed in a serial of 2 fold dilutions.
(§7) This was followed by the addition of 280 μl of log phase culture at 10^6 CFU/ml to make the final concentrations of each drug as shown in Table 1 and Table 2.
(§8) In the above table, values in bold text are for HT00800059. Values in plain text are for mupirocin. The numbers shown in each well are μg/ml.
(§9) Incubation of the compounds with the bacterial suspension was carried out for 24 hours. The kill effects of the drug combination were measured by optical density reading at 405 nm with a plate reader (Bio TEK).
(§10) The fractional inhibitory concentration (FIC) index was carried out as following: (MIC of drug A, tested in combination)/(MIC of drug A, tested alone)+(MIC of drug B, tested in combination)/(MIC of drug B, tested alone). The interaction was defined as synergistic if the FIC index was <1, additive if the FIC index was =1 and antagonistic if the FIC index was >1.

[2] = tested on: Mupirocin Resistant S. aureus (24 Passages); assay: Chequerboard analysis of HT00800059 and mupirocin against mupirocin resistant S. aureus (24 passages); type: cell-based, Staphylococcus aureus; conditions: for optical density reading at 405 nm: HT00800059 μg/ml: 1024,512,256,128,64,32,16,0, 24 hours
Experimental: as §1, §2, §3, §4, §5, §6, §7, §8, §9, §10

[3] = tested on: log phase Staphylococcus aureus; assay: Chequerboard analysis of HT00800059 and mupirocin against log phase Staphylococcus aureus; type: cell-based, Staphylococcus aureus (Oxford)
Experimental: Staphylococcus aureus (Oxford); Gram positive; Reference strain. Log phase growth of […] sensitive Staphylococcus aureus (MSSA) was carried out as follows: • Bacteria were grown in 10 ml of nutrient broth (No. 2, (Oxoid)) overnight at 37° C. with continuous shaking at 120 rpm. […] The cultures were incubated at 37° C. with shaking for 1-2 hours to reach log CFU 6. Viability of the bacteria was estimated by colony forming unit (CFU) counts. From serial 10-fold dilutions of the experimental cultures, 100 μl samples were added to triplicate plates of nutrient agar plates (Oxoid) or blood agar plates (Oxoid). CFUs were counted after incubation of the plates at 37° C. for 24 hours. […] 290 μl of the cell suspension was added to each well of the 96 well plate, which was incubated at 37° C. for 24 hours. […] MIC determination: The optical density of the bacterial cells was read at 405 nm using a plate reader (Bio TEK). The MIC concentration was determined as the lowest concentration of drug which inhibits the bacterial growth. […] HT00800059 was dissolved in H2O to the stock solution 30.07 mg/ml. […] HT00800059 (30.7 mg/ml) was performed in a serial of 2 fold dilutions. This was followed by the addition of 280 μl of log phase culture at 10^6 CFU/ml to make the final concentrations of each drug as shown. In the above table, values in bold text are for HT00800059. Values in plain text are for mupirocin. The numbers shown in each well are μg/ml. Incubation of the compounds with the bacterial suspension was carried out for 24 hours. The kill effects of the drug combination were measured by optical density reading at 405 nm with a plate reader (Bio TEK). The fractional inhibitory concentration (FIC) index was carried out as following: (MIC of drug A, tested in combination)/(MIC of drug A, tested alone)+(MIC of drug B, tested in combination)/(MIC of drug B, tested alone). The interaction was defined as synergistic if the FIC index was <1, additive if the FIC index was =1 and antagonistic if the FIC index was >1.

[4] = Staphylococcus aureus, read-out: alone MIC

SMILES: C/C(=C\C(=O)OCCCCCCCCC(=O)O)C[C@@H]1OC[C@H](C[C@@H]2O[C@H]2[C@@H](C)[C@H](C)O)[C@@H](O)[C@H]1O [Mupirocin]
- optical density reading at 405 nm ([1]; 28 passages, mupirocin 0.125 μg/ml): 1.255
- optical density reading at 405 nm ([1]; 28 passages, mupirocin 0.25 μg/ml): 1.246
- optical density reading at 405 nm ([1]; 28 passages, mupirocin 0.5 μg/ml): 1.252
- optical density reading at 405 nm ([1]; 28 passages, mupirocin 1 μg/ml): 1.244
- optical density reading at 405 nm ([1]; 28 passages, mupirocin 2 μg/ml): 1.208
- optical density reading at 405 nm ([1]; 28 passages, mupirocin 4 μg/ml): 1.136
- optical density reading at 405 nm ([1]; 28 passages, mupirocin 8 μg/ml): 0.968
- optical density reading at 405 nm ([1]; 28 passages, mupirocin 16 μg/ml): 0.726
- optical density reading at 405 nm ([1]; 28 passages, mupirocin 32 μg/ml): 0.480
- optical density reading at 405 nm ([1]; 28 passages, mupirocin 64 μg/ml): 0.363
- optical density reading at 405 nm ([1]; 28 passages, mupirocin 128 μg/ml): 0.346
- MIC [1, 4]: 64 µg/mL
- MIC before combination ([1]; resistant strain 28 passages): 64 µg/mL
- MIC post combination ([1]; resistant strain 28 passages): 4 µg/mL
- mupirocin MIC in combination ([1]; with HT00800059 at 256 μg/ml, 28 passages): 4 µg/mL
- optical density reading at 405 nm ([2]; 24 passages, mupirocin 0.125 μg/ml): 1.170
- optical density reading at 405 nm ([2]; 24 passages, mupirocin 0.25 μg/ml): 1.083
- optical density reading at 405 nm ([2]; 24 passages, mupirocin 0.5 μg/ml): 1.109
- optical density reading at 405 nm ([2]; 24 passages, mupirocin 1 μg/ml): 1.056
- optical density reading at 405 nm ([2]; 24 passages, mupirocin 2 μg/ml): 0.863
- optical density reading at 405 nm ([2]; 24 passages, mupirocin 4 μg/ml): 0.629
- optical density reading at 405 nm ([2]; 24 passages, mupirocin 8 μg/ml): 0.454
- optical density reading at 405 nm ([2]; 24 passages, mupirocin 16 μg/ml): 0.386
- optical density reading at 405 nm ([2]; 24 passages, mupirocin 21 μg/ml): 0.359
- optical density reading at 405 nm ([2]; 24 passages, mupirocin 64 μg/ml): 0.356
- optical density reading at 405 nm ([2]; 24 passages, mupirocin 128 μg/ml): 0.358
- MIC [2, 4]: 16 µg/mL
- MIC before combination ([2]; resistant strain 24 passages): 16 µg/mL
- MIC post combination ([2]; resistant strain 24 passages): 1 µg/mL
- mupirocin MIC in combination ([2]; with HT00800059 at 256 μg/ml, 24 passages): 1 µg/mL
- MIC ([3]; Staphylococcus aureus, summary list, read-out: alone MIC): 0.25 µg/mL
- MIC before combination ([3]; iso-sensitest broth): 0.25 µg/mL
- MIC post combination ([3]; iso-sensitest broth): 0.0625 µg/mL
- MIC before combination ([3]; nutrient broth): 0.25 µg/mL
- MIC post combination ([3]; nutrient broth): 0.0625 µg/mL
- mupirocin MIC in combination ([3]; with HT00800059 at 256 μg/ml): 0.0625 µg/mL

Source: patent US9789101B2, “Methods and compositions for treating microbial infection using pyrroloquinone” (HELPERBY THERAPEUTICS LIMITED, priority 2010, dated 2017)
